These results are taken from ChEMBL document CHEMBL4342421, “Current scenario of tetrazole hybrids for antibacterial activity” (Eur J Med Chem, 2019).

Holding throughout (format): functional
The subject of one test is Bacillus subtilis. Nature of the test: Antimicrobial activity against Bacillus subtilis NCIM 2250 after 48 hrs by NCCLS protocol based method. The note with it: NCIM 2250, 48 h.
Test [1] relates to Escherichia coli. Nature of the test: Antimicrobial activity against Escherichia coli ATCC 25922 after 48 hrs by NCCLS protocol based method. As to conditions: ATCC 25922, 48 h.
The test system of test [2] is Aspergillus niger. Nature of the test: Antifungal activity against Aspergillus niger NCIM 545 after 48 hrs by NCCLS protocol based method. As to conditions: NCIM 545, 48 h.
Test [3] relates to Candida albicans. Nature of the test: Antifungal activity against Candida albicans MTCC 277 after 48 hrs by NCCLS protocol based method. As to conditions: MTCC 277, 48 h.
The test system of test [4] is Escherichia coli. Nature of the test: Antimicrobial activity against Escherichia coli.
Test [5] deals with Pseudomonas aeruginosa. Kind of test: Antimicrobial activity against Pseudomonas aeruginosa.
Test [6] concerns Staphylococcus aureus. Kind of test: Antimicrobial activity against Staphylococcus aureus.
In test [7] the test system is Bacillus cereus. Kind of test: Antimicrobial activity against Bacillus cereus.
Test [8] concerns Candida albicans. Nature of the test: Antifungal activity against Candida albicans.
In test [9] the test system is Staphylococcus aureus. Kind of test: Antimicrobial activity against Staphylococcus aureus assessed as zone of inhibition at 250 ug/ml. As to conditions: read-out: IZ.
Test [10] has as its system Bacillus cereus. Kind of test: Antimicrobial activity against Bacillus cereus assessed as zone of inhibition at 250 ug/ml. As to conditions: read-out: IZ.
Test [11] relates to Escherichia coli. Kind of test: Antimicrobial activity against Escherichia coli assessed as zone of inhibition at 250 ug/ml. As to conditions: read-out: IZ.
The test system of test [12] is Pseudomonas aeruginosa. Kind of test: Antimicrobial activity against Pseudomonas aeruginosa assessed as zone of inhibition at 250 ug/ml. The note with it: read-out: IZ.
In test [13] the test system is Candida albicans. Nature of the test: Antifungal activity against Candida albicans assessed as zone of inhibition at 250 ug/ml. The note with it: read-out: IZ.
Test [14] concerns Aspergillus niger. Nature of the test: Antifungal activity against Aspergillus niger assessed as zone of inhibition at 250 ug/ml. As to conditions: read-out: IZ.
Test [15] concerns Aspergillus niger. Kind of test: Antifungal activity against Aspergillus niger.
Test [16] relates to Escherichia coli. Kind of test: Antimicrobial activity against Escherichia coli assessed as zone of inhibition at 50 ug/ml. As to conditions: read-out: IZ.
Test [17] has as its system Staphylococcus aureus. Kind of test: Antimicrobial activity against Staphylococcus aureus assessed as zone of inhibition at 50 ug/ml. The note with it: read-out: IZ.
The test system of test [18] is Aspergillus niger. Kind of test: Antifungal activity against Aspergillus niger assessed as zone of inhibition at 50 ug/ml. As to conditions: read-out: IZ.
In test [19] the test system is Candida albicans. Nature of the test: Antifungal activity against Candida albicans assessed as zone of inhibition at 50 ug/ml. The note with it: read-out: IZ.

≈ marks a conversion by molar mass, not a printed value.

With `CCOC(=O)C(C#N)C(c1cc2ccccc2n2nnnc12)P(=O)(OCC)OCC` (stereo unspecified), the MIC in the test on Bacillus subtilis, with Escherichia coli [1], with Aspergillus niger [2] and in the test with Candida albicans [3] was 10 to 20 µg/mL (≈ 23.2 to 46.4 µM) each time.
For `Oc1ccc(-c2nnnn2-c2nc3ccccc3s2)cc1O`, the MIC in the test with Escherichia coli [4], with Pseudomonas aeruginosa [5], in the test on Staphylococcus aureus [6], against Bacillus cereus [7], with Candida albicans [8] and against Aspergillus niger [15] was 50 to 100 µg/mL (≈ 161 to 321 µM) in each case. For the same compound, the zone of inhibition at 250 µg/mL in the test with Staphylococcus aureus [9], with Bacillus cereus [10], in the test on Escherichia coli [11], with Pseudomonas aeruginosa [12], in the test on Candida albicans [13] and with Aspergillus niger [14] was 16 to 26 mm in each case.
With `Cc1ccc(-c2nnnn2-c2nc3ccccc3s2)cc1`, the MIC with Escherichia coli [4], with Pseudomonas aeruginosa [5], in the test with Staphylococcus aureus [6], against Bacillus cereus [7], with Candida albicans [8] and with Aspergillus niger [15] was 50 to 100 µg/mL (≈ 170 to 341 µM) in each case. In addition, the zone of inhibition at 250 µg/mL with Staphylococcus aureus [9], in the test with Bacillus cereus [10], in the test with Escherichia coli [11], with Pseudomonas aeruginosa [12], in the test on Candida albicans [13] and in the test with Aspergillus niger [14] was 16 to 26 mm throughout.
As to `c1ccc(-c2nnnn2-c2nc3ccccc3s2)cc1`, the minimum inhibitory concentration (MIC) against Escherichia coli [4], with Pseudomonas aeruginosa [5], in the test on Staphylococcus aureus [6], in the test on Bacillus cereus [7], against Candida albicans [8] and in the test with Aspergillus niger [15] was 50 to 100 µg/mL (≈ 179 to 358 µM) each time. The zone of inhibition at 250 µg/mL with Staphylococcus aureus [9], with Bacillus cereus [10], in the test on Escherichia coli [11], in the test on Pseudomonas aeruginosa [12], with Candida albicans [13] and with Aspergillus niger [14] was 16 to 26 mm each time.
For the compound `COc1ccc(/C=C/C(=O)n2nnnc2-c2ccccc2)cc1`, the zone of inhibition at 50 µg/mL in the test with Escherichia coli [16], in the test with Staphylococcus aureus [17], with Aspergillus niger [18] and in the test on Candida albicans [19] was 8 to 15 mm in each case.
Turning to `CCOC(=O)C(C#N)C(c1cc2cc(C)ccc2n2nnnc12)P(=O)(OCC)OCC` (stereo unspecified), the minimal inhibitory concentration (MIC) against Bacillus subtilis, against Escherichia coli [1], in the test with Aspergillus niger [2] and against Candida albicans [3] was 10 to 20 µg/mL (≈ 22.5 to 44.9 µM) in each case.
Take `CN(C)c1ccc(/C=C/C(=O)n2nnnc2-c2ccccc2)cc1`: the zone of inhibition at 50 µg/mL in the test on Escherichia coli [16], in the test with Staphylococcus aureus [17], in the test on Aspergillus niger [18] and in the test on Candida albicans [19] was 8 to 15 mm throughout.
On to `O=C(/C=C/c1ccccc1[N+](=O)[O-])n1nnnc1-c1ccccc1`, for which the zone of inhibition at 50 µg/mL with Escherichia coli [16], with Staphylococcus aureus [17], in the test with Aspergillus niger [18] and in the test on Candida albicans [19] was 8 to 15 mm throughout.
On to `CCOC(=O)C(C#N)C(c1cc2ccc(C)cc2n2nnnc12)P(=O)(OCC)OCC` (stereo unspecified), for which the MIC in the test on Bacillus subtilis, against Escherichia coli [1], in the test with Aspergillus niger [2] and with Candida albicans [3] was 10 to 20 µg/mL (≈ 22.5 to 44.9 µM) each time.
In the case of `CCOC(=O)C(C#N)C(c1cc2c(OCC)cccc2n2nnnc12)P(=O)(OCC)OCC` (stereo unspecified), the minimal inhibitory concentration (MIC) in the test on Bacillus subtilis, with Escherichia coli [1], with Aspergillus niger [2] and against Candida albicans [3] was 10 to 20 µg/mL (≈ 21 to 42.1 µM) each time.
As to `O=C(/C=C/c1ccccc1Cl)n1nnnc1-c1ccccc1`, the zone of inhibition at 50 µg/mL in the test on Escherichia coli [16], in the test on Staphylococcus aureus [17], in the test with Aspergillus niger [18] and with Candida albicans [19] was 8 to 15 mm throughout.
As to `O=C(/C=C/c1ccc([N+](=O)[O-])cc1)n1nnnc1-c1ccccc1`, the zone of inhibition at 50 µg/mL in the test on Escherichia coli [16], with Staphylococcus aureus [17], in the test with Aspergillus niger [18] and in the test with Candida albicans [19] was 8 to 15 mm in each case.
Turning to `Oc1cccc(-c2nnnn2-c2nc3ccccc3s2)c1`, the minimal inhibitory concentration (MIC) in the test on Escherichia coli [4], against Pseudomonas aeruginosa [5], against Staphylococcus aureus [6], in the test on Bacillus cereus [7], in the test on Candida albicans [8] and with Aspergillus niger [15] was 50 to 100 µg/mL (≈ 169 to 339 µM) throughout. Further, the zone of inhibition at 250 µg/mL in the test on Staphylococcus aureus [9], in the test with Bacillus cereus [10], with Escherichia coli [11], in the test on Pseudomonas aeruginosa [12], with Candida albicans [13] and with Aspergillus niger [14] was 16 to 26 mm each time.
`O=C(/C=C/c1ccc(Br)cc1)n1nnnc1-c1ccccc1`: the zone of inhibition at 50 µg/mL in the test with Escherichia coli [16], with Staphylococcus aureus [17], with Aspergillus niger [18] and in the test with Candida albicans [19] was 8 to 15 mm throughout.
With `CN(C)c1ccc(-c2nnnn2-c2nc3ccccc3s2)cc1`, the MIC against Escherichia coli [4], in the test on Pseudomonas aeruginosa [5], against Staphylococcus aureus [6], in the test on Bacillus cereus [7], against Candida albicans [8] and against Aspergillus niger [15] was 50 to 100 µg/mL (≈ 155 to 310 µM) each time. The zone of inhibition at 250 µg/mL in the test on Staphylococcus aureus [9], in the test on Bacillus cereus [10], with Escherichia coli [11], in the test on Pseudomonas aeruginosa [12], with Candida albicans [13] and in the test on Aspergillus niger [14] was 16 to 26 mm each time.
With `COc1cc(-c2nnnn2-c2nc3ccccc3s2)cc(OC)c1OC`, the MIC in the test with Escherichia coli [4], in the test with Pseudomonas aeruginosa [5], against Staphylococcus aureus [6], with Bacillus cereus [7], in the test on Candida albicans [8] and against Aspergillus niger [15] was 50 to 100 µg/mL (≈ 135 to 271 µM) in each case. For the same compound, the zone of inhibition at 250 µg/mL with Staphylococcus aureus [9], in the test with Bacillus cereus [10], in the test on Escherichia coli [11], with Pseudomonas aeruginosa [12], in the test on Candida albicans [13] and with Aspergillus niger [14] was 16 to 26 mm throughout.
Regarding `Cc1ccc(/C=C/C(=O)n2nnnc2-c2ccccc2)cc1`, the zone of inhibition at 50 µg/mL in the test on Escherichia coli [16], with Staphylococcus aureus [17], with Aspergillus niger [18] and in the test on Candida albicans [19] was 8 to 15 mm each time.
As for `O=C(/C=C/c1ccccc1)n1nnnc1-c1ccccc1`, the zone of inhibition at 50 µg/mL with Escherichia coli [16], in the test on Staphylococcus aureus [17], in the test on Aspergillus niger [18] and in the test with Candida albicans [19] was 8 to 15 mm in each case.
As for `Oc1ccc(-c2nnnn2-c2nc3ccccc3s2)cc1`, the minimum inhibitory concentration (MIC) in the test on Escherichia coli [4], with Pseudomonas aeruginosa [5], with Staphylococcus aureus [6], with Bacillus cereus [7], against Candida albicans [8] and with Aspergillus niger [15] was 50 to 100 µg/mL (≈ 169 to 339 µM) in each case. Also, the zone of inhibition at 250 µg/mL in the test with Staphylococcus aureus [9], in the test on Bacillus cereus [10], in the test with Escherichia coli [11], in the test with Pseudomonas aeruginosa [12], with Candida albicans [13] and with Aspergillus niger [14] was 16 to 26 mm each time.
Regarding `O=C(/C=C/c1ccc(Cl)cc1)n1nnnc1-c1ccccc1`, the zone of inhibition at 50 µg/mL in the test on Escherichia coli [16], in the test with Staphylococcus aureus [17], with Aspergillus niger [18] and in the test on Candida albicans [19] was 8 to 15 mm each time.

Broadly, the MIC is the lowest concentration that inhibits growth of the organism. Read a high MIC as a need for much substance.
